Data: US12097241B2, “Methods of treating kidney failure, and/or improving or stablizing renal function using modified relaxin polypeptides” (BRISTOL-MYERS SQUIBB COMPANY, priority 2017, dated 2024)

Experiments:
human RXFP1 receptor = biological target: T1, human RXFP1 receptor (Homo sapiens, UniProt Q9HBX9); assay: Intracellular cAMP accumulation assay; format: cell-based
T1 construct: expressed in transfected cells
T1 sequence (Q9HBX9 1-757): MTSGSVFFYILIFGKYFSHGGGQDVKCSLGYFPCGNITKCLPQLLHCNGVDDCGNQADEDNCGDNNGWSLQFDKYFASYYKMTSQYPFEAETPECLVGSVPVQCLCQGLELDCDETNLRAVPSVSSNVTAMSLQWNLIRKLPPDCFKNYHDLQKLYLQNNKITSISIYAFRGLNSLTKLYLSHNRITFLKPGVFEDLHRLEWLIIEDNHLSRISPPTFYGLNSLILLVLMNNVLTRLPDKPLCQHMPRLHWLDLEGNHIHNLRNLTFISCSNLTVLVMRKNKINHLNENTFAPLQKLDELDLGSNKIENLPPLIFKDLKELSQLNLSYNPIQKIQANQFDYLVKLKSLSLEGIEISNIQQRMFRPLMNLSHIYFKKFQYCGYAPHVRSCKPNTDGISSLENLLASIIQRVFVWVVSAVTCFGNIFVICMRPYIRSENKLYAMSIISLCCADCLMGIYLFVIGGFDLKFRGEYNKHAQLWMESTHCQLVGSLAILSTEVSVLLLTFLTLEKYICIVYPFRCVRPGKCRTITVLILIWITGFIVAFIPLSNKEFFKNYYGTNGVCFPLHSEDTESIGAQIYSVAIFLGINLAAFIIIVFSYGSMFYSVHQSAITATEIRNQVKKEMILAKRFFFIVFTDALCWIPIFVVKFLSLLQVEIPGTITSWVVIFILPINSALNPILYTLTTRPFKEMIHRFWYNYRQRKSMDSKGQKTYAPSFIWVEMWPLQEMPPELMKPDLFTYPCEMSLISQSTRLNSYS
Protocol: The intracellular cAMP accumulation assay described herein was used to assess relaxin bioactivity and potency.
CHO-K1 cells (ATCC; Cat. #CRL-9618) stably expressing the human RXFP1 receptor (locus number LOC59350) (10,000/well) were plated into 96-well plates and cultured overnight at 37° C. and 5% CO2. On the following day, the medium was removed from the wells and the cells were stimulated with the addition of ligand (relaxin polypeptide) in 50 uL buffer (1×HBSS, 5 mM HEPES (7.2), 0.5 mM IBMX, 0.1% BSA); incubation was for 10 min at 37° C. Unstimulated cells were utilized as reference controls. Reactions were terminated and cellular cAMP levels were measured using the Homogeneous Time Resolved Fluorescence (HTRF) Dynamic 2 cAMP kit (CisBio, #62AM4PEC) according to the manufacturer's protocol. Plates were analyzed using an EnVision 2104 Multilablel Reader (PerkinElmer). Signal was expressed in terms of the ratio of fluorescence intensity @ 665 nm/fluorescence intensity @620 nm×10,000. The concentration of cAMP in the sample was determined by comparison with standard curves generated from known concentrations of cAMP. The potency of each relaxin was determined using a ten-point concentration response curves which was performed in duplicate. The data were analyzed using Microsoft Excel, Version 2013 Xlfit software. Effective concentration 50 (EC50) values, the point at which the response was one-half maximal, were calculated using a four-parameter logistic equation that allowed for a variable-slope (Table 3).

[1] = In vivo pharmacokinetic (PK) studies in rats; set-up: species or system Sprague-Dawley rats; conditions: rat, male Sprague-Dawley rats, single SC dose 1.0 mg/kg, serum ELISA
Protocol: […] Blood samples were collected via jugular vein at different time points out to 72 hours. Blood samples were allowed to coagulate at room temperature (30-60 m) and then centrifuged (1500-2000) at 4° C. to obtain serum. After centrifugation serum samples were transferred to 96 well plates and stored at −80° C. until bioanalysis. Relaxin concentrations were measured from serum by ELISA.
Relaxin concentration-time profiles from individual animals were used for analysis. Pharmacokinetic parameters were calculated by non-compartmental methods using Phoenix WinNonlin (version 6.4) or Kinetica (version 5). Mean pharmacokinetic parameters Cmax, AUCinf, C24 and half-life were reported (Table 4). Table 4. In vivo PK data (abbreviations as in Table 3).

SMILES	EC50 (human RXFP1 receptor) [nM]	AUC(0-inf) ([1]; read-out: Rat PK AUC Total) [µM·h]	level at time molar at 24 h ([1]; read-out: Rat PK C24) [nM]
CCCCCCCCCCCCCCC(=O)NCC(=O)NCC(=O)NCC(=O)N[C@@H](CCC(=O)O)C(=O)N[C@@H](CCC(=O)O)C(=O)N1CCC[C@H]1C(=O)N[C@@H](CCC(=O)O)C(=O)N[C@@H](CCC(=O)O)C(=O)N[C@@H](CCC(=O)O)C(=O)N[C@@H](CCC(=O)O)C(=O)N1CCC[C@H]1C(=O)N[C@@H](CCC(=O)O)C(=O)N[C@@H](CCC(=O)O)C(=O)N[C@@H](CCC(=O)O)C(=O)N[C@@H](CCC(=O)O)C(=O)N1CCC[C@H]1C(=O)N[C@@H](CCC(=O)O)C(=O)N[C@@H](CCC(=O)O)C(=O)N[C@@H](CCC(=O)O)C(=O)N[C@@H](CCC(=O)O)C(=O)NCCON=C(C)c1ccc(C[C@H](N)C(=O)N[C@@H](CC(C)C)C(=O)N[C@@H](Cc2ccc(O)cc2)C(=O)N[C@@H](CO)C(=O)N[C@@H](C)C(=O)N[C@@H](CC(C)C)C(=O)N[C@@H](C)C(=O)N[C@@H](CC(N)=O)C(=O)N[C@@H](CCCCN)C(=O)N[C@H]2CSSC[C@@H]3NC(=O)CNC(=O)[C@H](C(C)C)NC(=O)[C@H](Cc4c[nH]cn4)NC(=O)[C@H](CSSC[C@H](NC(=O)[C@H](CC(C)C)NC(=O)[C@H](CCCCN)NC(=O)[C@@H](NC(=O)[C@@H](NC(=O)[C@H](CCC(=O)O)NC(=O)[C@H](CCC(=O)O)NC(=O)[C@H](CCSC)NC(=O)[C@H](Cc4c[nH]c5ccccc45)NC(=O)[C@H](CO)NC(=O)[C@H](C)N)C(C)C)[C@@H](C)CC)C(=O)NCC(=O)N[C@@H](CCCNC(=N)N)C(=O)N[C@@H](CCC(=O)O)C(=O)N[C@@H](CC(C)C)C(=O)N[C@@H](C(C)C)C(=O)N[C@@H](CCCNC(=N)N)C(=O)N[C@@H](C)C(=O)N[C@@H](CCC(N)=O)C(=O)N[C@@H]([C@@H](C)CC)C(=O)N[C@@H](C)C(=O)N[C@@H]([C@@H](C)CC)C(=O)N[C@H](C(=O)NCC(=O)N[C@@H](CCSC)C(=O)N[C@@H](CO)C(=O)N[C@H](C(=O)N[C@@H](Cc4c[nH]c5ccccc45)C(=O)N[C@@H](CO)C(=O)O)[C@@H](C)O)CSSC[C@@H](C(=O)O)NC(=O)[C@H](Cc4ccccc4)NC(=O)[C@H](CCCNC(=N)N)NC(=O)[C@H](C)NC(=O)[C@H](CC(C)C)NC(=O)[C@H](CO)NC(=O)[C@H](CCCNC(=N)N)NC(=O)[C@H](CCCCN)NC(=O)[C@H]([C@@H](C)O)NC3=O)NC2=O)cc1	0.16	–	–
CC[C@H](C)[C@@H]1NC(=O)[C@H](C)NC(=O)[C@H]([C@@H](C)CC)NC(=O)[C@H](CCC(N)=O)NC(=O)[C@H](C)NC(=O)[C@H](CCCNC(=N)N)NC(=O)[C@H](C(C)C)NC(=O)[C@H](CC(C)C)NC(=O)[C@H](CCC(=O)O)NC(=O)[C@H](CCCNC(=N)N)NC(=O)CNC(=O)[C@@H](NC(=O)[C@H](CC(C)C)NC(=O)[C@H](CCCCN)NC(=O)[C@@H](NC(=O)[C@@H](NC(=O)[C@H](CCC(=O)O)NC(=O)[C@H](CCC(=O)O)NC(=O)[C@H](CCSC)NC(=O)[C@H](Cc2c[nH]c3ccccc23)NC(=O)[C@H](CO)NC(=O)[C@H](C)N)C(C)C)[C@@H](C)CC)CSSC[C@@H]2NC(=O)[C@@H](NC(=O)[C@H](CCCCN)NC(=O)[C@H](CC(N)=O)NC(=O)[C@H](C)NC(=O)[C@H](CC(C)C)NC(=O)[C@H](C)NC(=O)[C@H](CO)NC(=O)[C@H](Cc3ccc(O)cc3)NC(=O)[C@H](CC(C)C)NC(=O)[C@@H](N)Cc3ccc(/C(C)=N/OCCNC(=O)CN(C)C(=O)CN(C)C(=O)CN(C)C(=O)CN(C)C(=O)[C@H](CO)NC(=O)CN(C)C(=O)CN(C)C(=O)CN(C)C(=O)CN(C)C(=O)CC[C@H](NC(=O)CCCCCCCCCCCCC(=O)O)C(=O)O)cc3)CSSC[C@H](NC(=O)CNC(=O)[C@H](C(C)C)NC(=O)[C@H](Cc3c[nH]cn3)NC2=O)C(=O)N[C@@H]([C@@H](C)O)C(=O)N[C@@H](CCCCN)C(=O)N[C@@H](CCCNC(=N)N)C(=O)N[C@@H](CO)C(=O)N[C@@H](CC(C)C)C(=O)N[C@@H](C)C(=O)N[C@@H](CCCNC(=N)N)C(=O)N[C@@H](Cc2ccccc2)C(=O)N[C@H](C(=O)O)CSSC[C@@H](C(=O)NCC(=O)N[C@@H](CCSC)C(=O)N[C@@H](CO)C(=O)N[C@H](C(=O)N[C@@H](Cc2c[nH]c3ccccc23)C(=O)N[C@@H](CO)C(=O)O)[C@@H](C)O)NC1=O	0.39	–	–
CCCCCCCCCCCCCCC(=O)N[C@@H](CCC(=O)N[C@@H](CCC(=O)O)C(=O)N[C@@H](CCC(=O)O)C(=O)N[C@@H](CCC(=O)O)C(=O)N[C@@H](CCC(=O)O)C(=O)N[C@@H](CCC(=O)O)C(=O)N[C@@H](CCC(=O)O)C(=O)NCCON=C(C)c1ccc(C[C@H](N)C(=O)N[C@@H](CC(C)C)C(=O)N[C@@H](Cc2ccc(O)cc2)C(=O)N[C@@H](CO)C(=O)N[C@@H](C)C(=O)N[C@@H](CC(C)C)C(=O)N[C@@H](C)C(=O)N[C@@H](CC(N)=O)C(=O)N[C@@H](CCCCN)C(=O)N[C@H]2CSSC[C@@H]3NC(=O)CNC(=O)[C@H](C(C)C)NC(=O)[C@H](Cc4c[nH]cn4)NC(=O)[C@H](CSSC[C@H](NC(=O)[C@H](CC(C)C)NC(=O)[C@H](CCCCN)NC(=O)[C@@H](NC(=O)[C@@H](NC(=O)[C@H](CCC(=O)O)NC(=O)[C@H](CCC(=O)O)NC(=O)[C@H](CCSC)NC(=O)[C@H](Cc4c[nH]c5ccccc45)NC(=O)[C@H](CO)NC(=O)[C@H](C)N)C(C)C)[C@@H](C)CC)C(=O)NCC(=O)N[C@@H](CCCNC(=N)N)C(=O)N[C@@H](CCC(=O)O)C(=O)N[C@@H](CC(C)C)C(=O)N[C@@H](C(C)C)C(=O)N[C@@H](CCCNC(=N)N)C(=O)N[C@@H](C)C(=O)N[C@@H](CCC(N)=O)C(=O)N[C@@H]([C@@H](C)CC)C(=O)N[C@@H](C)C(=O)N[C@@H]([C@@H](C)CC)C(=O)N[C@H](C(=O)NCC(=O)N[C@@H](CCSC)C(=O)N[C@@H](CO)C(=O)N[C@H](C(=O)N[C@@H](Cc4c[nH]c5ccccc45)C(=O)N[C@@H](CO)C(=O)O)[C@@H](C)O)CSSC[C@@H](C(=O)O)NC(=O)[C@H](Cc4ccccc4)NC(=O)[C@H](CCCNC(=N)N)NC(=O)[C@H](C)NC(=O)[C@H](CC(C)C)NC(=O)[C@H](CO)NC(=O)[C@H](CCCNC(=N)N)NC(=O)[C@H](CCCCN)NC(=O)[C@H]([C@@H](C)O)NC3=O)NC2=O)cc1)C(=O)O [AQ1-EEEEEE-Glu^γ-C14-CH3]	0.38	–	–
CC[C@H](C)[C@@H]1NC(=O)[C@H](C)NC(=O)[C@H]([C@@H](C)CC)NC(=O)[C@H](CCC(N)=O)NC(=O)[C@H](C)NC(=O)[C@H](CCCNC(=N)N)NC(=O)[C@H](C(C)C)NC(=O)[C@H](CC(C)C)NC(=O)[C@H](CCC(=O)O)NC(=O)[C@H](CCCNC(=N)N)NC(=O)CNC(=O)[C@@H](NC(=O)[C@H](CC(C)C)NC(=O)[C@H](CCCCN)NC(=O)[C@@H](NC(=O)[C@@H](NC(=O)[C@H](CCC(=O)O)NC(=O)[C@H](CCC(=O)O)NC(=O)[C@H](CCSC)NC(=O)[C@H](Cc2c[nH]c3ccccc23)NC(=O)[C@H](CO)NC(=O)[C@H](C)N)C(C)C)[C@@H](C)CC)CSSC[C@@H]2NC(=O)[C@@H](NC(=O)[C@H](CCCCN)NC(=O)[C@H](CC(N)=O)NC(=O)[C@H](C)NC(=O)[C@H](CC(C)C)NC(=O)[C@H](C)NC(=O)[C@H](CO)NC(=O)[C@H](Cc3ccc(O)cc3)NC(=O)[C@H](CC(C)C)NC(=O)[C@@H](N)Cc3ccc(C(C)=NOCCNC(=O)[C@H](CCCCN)NC(=O)[C@H](CO)NC(=O)CNC(=O)CNC(=O)[C@H](CO)NC(=O)CNC(=O)CNC(=O)CC[C@H](NC(=O)CCCCCCCCCCCCC(=O)O)C(=O)O)cc3)CSSC[C@H](NC(=O)CNC(=O)[C@H](C(C)C)NC(=O)[C@H](Cc3c[nH]cn3)NC2=O)C(=O)N[C@@H]([C@@H](C)O)C(=O)N[C@@H](CCCCN)C(=O)N[C@@H](CCCNC(=N)N)C(=O)N[C@@H](CO)C(=O)N[C@@H](CC(C)C)C(=O)N[C@@H](C)C(=O)N[C@@H](CCCNC(=N)N)C(=O)N[C@@H](Cc2ccccc2)C(=O)N[C@H](C(=O)O)CSSC[C@@H](C(=O)NCC(=O)N[C@@H](CCSC)C(=O)N[C@@H](CO)C(=O)N[C@H](C(=O)N[C@@H](Cc2c[nH]c3ccccc23)C(=O)N[C@@H](CO)C(=O)O)[C@@H](C)O)NC1=O [AQ1-KSGGSGG-Glu^γ-C13-COOH]	–	0.814	0.73
